We go through seven compounds from ChEMBL document CHEMBL1201862, “PubChem BioAssay data set” (2004).

One experiment has as its target T1, Caspase-3 (Homo sapiens, UniProt P42574).
T1 sequence (P42574 whole entry): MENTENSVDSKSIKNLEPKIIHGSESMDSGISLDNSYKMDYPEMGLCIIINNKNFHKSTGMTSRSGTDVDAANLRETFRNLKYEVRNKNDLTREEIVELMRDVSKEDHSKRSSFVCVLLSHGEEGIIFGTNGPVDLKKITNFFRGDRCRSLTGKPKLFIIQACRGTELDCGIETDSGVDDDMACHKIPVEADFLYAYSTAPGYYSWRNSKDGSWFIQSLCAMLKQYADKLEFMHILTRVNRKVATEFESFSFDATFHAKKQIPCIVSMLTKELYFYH
The experiment can be described thus: Dose-response confirmation of uHTS inhibitor hits of Sentrin-Specific Protease 8 in a Caspase-3 Fluorescence assay. The class given is functional.

For the next experiment, the target named is T2, Coagulation factor XII (Homo sapiens, UniProt P00748).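 Also: activated factor XIIa alpha cleaving a fluorogenic AMC peptide substrate; inhibitor potency from loss of enzyme activity.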
T2 sequence (P00748 whole entry): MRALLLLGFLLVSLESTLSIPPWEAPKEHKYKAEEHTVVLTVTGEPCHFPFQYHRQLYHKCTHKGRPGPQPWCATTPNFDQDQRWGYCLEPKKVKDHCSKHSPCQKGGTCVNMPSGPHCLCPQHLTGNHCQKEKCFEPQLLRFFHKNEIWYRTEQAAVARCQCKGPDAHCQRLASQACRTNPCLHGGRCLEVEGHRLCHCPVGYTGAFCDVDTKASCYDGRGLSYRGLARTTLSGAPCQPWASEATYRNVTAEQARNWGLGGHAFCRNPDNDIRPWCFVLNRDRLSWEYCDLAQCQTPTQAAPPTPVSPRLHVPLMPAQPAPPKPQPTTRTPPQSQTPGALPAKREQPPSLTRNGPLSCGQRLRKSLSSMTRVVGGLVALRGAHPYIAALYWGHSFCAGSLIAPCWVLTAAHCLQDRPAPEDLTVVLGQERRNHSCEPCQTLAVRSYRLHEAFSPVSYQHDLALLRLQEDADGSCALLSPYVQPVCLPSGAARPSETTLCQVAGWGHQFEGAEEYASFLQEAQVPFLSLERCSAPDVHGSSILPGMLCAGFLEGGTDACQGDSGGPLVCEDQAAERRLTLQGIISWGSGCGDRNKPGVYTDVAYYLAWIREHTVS
The class given is functional.

Experiment [1] has as its target T3, Sentrin-specific protease 8 (Homo sapiens, UniProt Q96LD8).
T3 sequence (Q96LD8 whole entry): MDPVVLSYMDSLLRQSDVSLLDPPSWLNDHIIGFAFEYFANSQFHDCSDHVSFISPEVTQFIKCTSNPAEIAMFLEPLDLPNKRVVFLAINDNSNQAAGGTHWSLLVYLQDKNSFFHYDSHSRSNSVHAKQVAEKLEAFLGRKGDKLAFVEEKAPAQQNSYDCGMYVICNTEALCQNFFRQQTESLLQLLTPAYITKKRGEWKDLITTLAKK
The class given is functional.

Experiment [2] addresses T3, Sentrin-specific protease 8. The format is functional. This is another data set of the same source.
A further experiment deals with Genome polyprotein (dengue virus type 2, UniProt P29990). The experiment can be described thus: Dengue-2 NS5 methyltransferase inhibitors, primary screen, biochemical, confirmation dose response (AID 588689). The class given is functional.
Genome polyprotein, sequence (P29990 2492-3391 limits assumed): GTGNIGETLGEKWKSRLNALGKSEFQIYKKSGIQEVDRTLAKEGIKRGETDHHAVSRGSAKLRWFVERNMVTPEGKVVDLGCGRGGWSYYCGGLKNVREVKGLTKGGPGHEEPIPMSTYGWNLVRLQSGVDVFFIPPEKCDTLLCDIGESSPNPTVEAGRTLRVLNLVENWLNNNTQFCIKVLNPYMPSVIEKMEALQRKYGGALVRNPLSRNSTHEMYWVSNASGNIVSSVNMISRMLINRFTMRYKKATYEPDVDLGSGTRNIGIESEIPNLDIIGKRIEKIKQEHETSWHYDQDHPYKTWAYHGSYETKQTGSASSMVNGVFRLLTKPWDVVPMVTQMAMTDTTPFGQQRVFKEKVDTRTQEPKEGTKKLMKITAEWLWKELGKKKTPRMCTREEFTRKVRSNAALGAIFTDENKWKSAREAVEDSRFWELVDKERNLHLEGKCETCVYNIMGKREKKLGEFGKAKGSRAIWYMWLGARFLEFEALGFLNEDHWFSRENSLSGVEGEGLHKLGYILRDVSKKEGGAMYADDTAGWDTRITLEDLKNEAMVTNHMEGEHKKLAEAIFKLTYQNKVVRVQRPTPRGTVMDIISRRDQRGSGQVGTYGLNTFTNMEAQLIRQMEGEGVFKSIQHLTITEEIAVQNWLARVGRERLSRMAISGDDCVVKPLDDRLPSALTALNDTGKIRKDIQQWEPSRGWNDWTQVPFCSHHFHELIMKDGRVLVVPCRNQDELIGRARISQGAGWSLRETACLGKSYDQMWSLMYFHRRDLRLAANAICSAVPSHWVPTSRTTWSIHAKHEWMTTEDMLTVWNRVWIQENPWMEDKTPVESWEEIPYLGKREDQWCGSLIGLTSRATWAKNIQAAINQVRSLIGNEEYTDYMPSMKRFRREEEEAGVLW
The target of experiment [3] is Ras and Rab interactor 1/Tyrosine-protein kinase ABL1 (Homo sapiens, UniProt P00519+Q13671). The format is functional.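 Also: biochemical TR-FRET dose-response test measuring inhibition of binding between Rin1 and Abl proteins.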
In a further experiment the test system is Vero. The experiment can be described thus: Vero cell cytotoxicity, cytotoxicity control for flavivirus capping enzyme inhibitors (AID 588742). The settings on record: Chlorocebus sabaeus. The format is functional.
For a further experiment, the target named is Melanocortin receptor 4 (Homo sapiens, UniProt P32245). The experiment is described as follows: MC4R antagonist potency on cAMP, dose response, cell-based, TR-FRET, biased antagonists (AID 602298).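 Also: antagonist potency against agonist-stimulated cAMP production.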 The class given is functional. For orientation: TR-FRET usually uses a lanthanide donor and a delayed reading to cut background.
Melanocortin receptor 4, sequence (P32245 whole entry): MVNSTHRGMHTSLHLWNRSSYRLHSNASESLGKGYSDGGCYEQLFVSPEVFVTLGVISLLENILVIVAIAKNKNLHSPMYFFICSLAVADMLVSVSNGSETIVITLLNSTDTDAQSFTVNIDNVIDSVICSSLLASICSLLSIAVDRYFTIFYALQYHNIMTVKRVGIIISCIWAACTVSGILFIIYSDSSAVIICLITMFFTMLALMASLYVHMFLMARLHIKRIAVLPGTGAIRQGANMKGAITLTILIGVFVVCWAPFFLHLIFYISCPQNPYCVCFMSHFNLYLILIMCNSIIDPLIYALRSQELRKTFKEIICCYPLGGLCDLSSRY
Experiment [4] in a line: nonselective inhibitors of cellular cAMP signaling, dose response, counter-screen for MC4R biased antagonist project, cell-based, TR-FRET cAMP detection (AID 602305).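 Also: U2OS cells stimulated with forskolin near its EC80 as the cAMP inducer; potency is for inhibition of forskolin-stimulated cAMP signaling.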 The format is functional.
Experiment [5] deals with T4, Corticotropin-releasing factor receptor 2/Corticotropin-releasing factor-binding protein (Homo sapiens, UniProt P24387+Q13324).
T4 sequence (Q13324 whole entry): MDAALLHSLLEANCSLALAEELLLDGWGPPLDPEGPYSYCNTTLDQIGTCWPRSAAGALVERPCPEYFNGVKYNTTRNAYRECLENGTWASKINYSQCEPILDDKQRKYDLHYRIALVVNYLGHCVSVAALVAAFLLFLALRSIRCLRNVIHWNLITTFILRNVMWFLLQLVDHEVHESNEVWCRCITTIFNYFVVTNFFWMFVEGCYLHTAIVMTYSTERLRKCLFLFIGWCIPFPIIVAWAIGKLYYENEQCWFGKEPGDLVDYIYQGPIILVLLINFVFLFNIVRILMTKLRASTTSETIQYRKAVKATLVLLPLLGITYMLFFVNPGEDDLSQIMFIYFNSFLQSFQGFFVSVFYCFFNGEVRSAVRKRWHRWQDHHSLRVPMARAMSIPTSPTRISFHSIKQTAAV
T4 sequence (P24387 whole entry): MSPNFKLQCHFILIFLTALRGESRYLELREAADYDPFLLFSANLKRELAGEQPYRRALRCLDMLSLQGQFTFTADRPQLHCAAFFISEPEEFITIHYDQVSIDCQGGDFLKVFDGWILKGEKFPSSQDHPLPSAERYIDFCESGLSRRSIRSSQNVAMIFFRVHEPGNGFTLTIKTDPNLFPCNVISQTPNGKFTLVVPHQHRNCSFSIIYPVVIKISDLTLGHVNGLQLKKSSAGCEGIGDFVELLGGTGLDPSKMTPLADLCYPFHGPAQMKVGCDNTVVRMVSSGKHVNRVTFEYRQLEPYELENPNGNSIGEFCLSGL
The experiment can be described thus: Dose Response confirmation of uHTS hits for small molecule antagonists of the CRF-binding protein and CRF-R2 receptor complex. The class given is functional. The note with it: read-out: IC50_Mean.

In experiment [6] the target is T4, Corticotropin-releasing factor receptor 2/Corticotropin-releasing factor-binding protein. The experiment can be described thus: activators of CRF receptor 2 with binding protein – uHTS hits, confirmation (AID 602473). The format is functional. The note with it: read-out: EC50_Mean.
Experiment [7] can be described thus: CRF-BP/CRF-R2 complex antagonists, dose response, cell-based, uHTS hits, 384-well (AID 651639). The class given is functional, Homo sapiens. The note with it: read-out: IC50_Mean.
For the next experiment, the target named is Protein Wnt-3a (Mus musculus, UniProt P27467). The experiment can be described thus: Wnt3a-driven reporter signaling inhibition, dose response, selectivity assay for Gli-SUFU antagonist project, Wnt-LIGHT cells, luminescence (AID 651570).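 Also: Wnt-LIGHT reporter cells stimulated with conditioned medium from Wnt3a-producing cells.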 The format is functional. The settings on record: read-out: IC50_Mean.
Protein Wnt-3a, sequence (P27467 whole entry): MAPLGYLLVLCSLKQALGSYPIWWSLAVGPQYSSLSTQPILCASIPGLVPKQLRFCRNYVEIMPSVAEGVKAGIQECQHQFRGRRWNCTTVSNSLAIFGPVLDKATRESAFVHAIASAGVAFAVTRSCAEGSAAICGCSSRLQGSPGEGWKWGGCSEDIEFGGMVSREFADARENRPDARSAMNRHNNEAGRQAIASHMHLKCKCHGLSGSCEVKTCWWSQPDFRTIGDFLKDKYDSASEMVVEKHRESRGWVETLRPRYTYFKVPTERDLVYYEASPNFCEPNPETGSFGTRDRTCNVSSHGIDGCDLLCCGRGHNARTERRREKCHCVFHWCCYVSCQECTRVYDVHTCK
The next experiment concerns INS1. The experiment is described as follows: beta cell apoptosis inhibitors, cytokine rescue, dose response, luminescence, retest (AID 449756).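 Also: cell death triggered by IL-1 beta plus TNF-alpha plus IFN-gamma mixture; protective hits raise ATP signal compared with cytokine alone wells.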 The class given is functional, cell-based. The note with it: Rattus norvegicus.
The target in experiment [8] is T5, Heat shock factor protein 1 (Mus musculus, UniProt P38532).
T5 sequence (P38532 whole entry): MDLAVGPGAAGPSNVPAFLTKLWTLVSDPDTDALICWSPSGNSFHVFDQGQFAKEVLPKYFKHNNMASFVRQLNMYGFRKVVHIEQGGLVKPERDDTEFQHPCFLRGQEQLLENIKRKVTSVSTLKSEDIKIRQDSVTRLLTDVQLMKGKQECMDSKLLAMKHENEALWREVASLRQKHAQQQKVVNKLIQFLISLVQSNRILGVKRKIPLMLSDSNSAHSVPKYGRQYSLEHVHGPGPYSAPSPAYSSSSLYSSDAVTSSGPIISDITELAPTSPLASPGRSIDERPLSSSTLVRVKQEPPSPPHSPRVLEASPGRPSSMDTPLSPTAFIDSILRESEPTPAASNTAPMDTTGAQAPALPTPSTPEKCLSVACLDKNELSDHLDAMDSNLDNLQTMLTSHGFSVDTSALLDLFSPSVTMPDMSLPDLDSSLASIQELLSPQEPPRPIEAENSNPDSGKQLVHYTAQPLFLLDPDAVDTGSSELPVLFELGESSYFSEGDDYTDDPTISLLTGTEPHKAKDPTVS
The experiment can be described thus: HSF1 potentiators in luciferase reporter cells, confirmation, cell-based, NIH3T3, luminescence, dose retest (AID 435004).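 Also: stress induced by proteasome inhibitor MG132 added 30 min after compound; luciferase reporter driven by HSF1 response element in NIH3T3 cells; actives raise luminescence as potentiators of the MG132 stress response.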 The format is functional. (In general: In a reporter assay the amount or activity of a reporter protein is the signal.)

Experiment [9] deals with T6, Microphthalmia-associated transcription factor (Homo sapiens, UniProt O75030).
T6 sequence (O75030 whole entry): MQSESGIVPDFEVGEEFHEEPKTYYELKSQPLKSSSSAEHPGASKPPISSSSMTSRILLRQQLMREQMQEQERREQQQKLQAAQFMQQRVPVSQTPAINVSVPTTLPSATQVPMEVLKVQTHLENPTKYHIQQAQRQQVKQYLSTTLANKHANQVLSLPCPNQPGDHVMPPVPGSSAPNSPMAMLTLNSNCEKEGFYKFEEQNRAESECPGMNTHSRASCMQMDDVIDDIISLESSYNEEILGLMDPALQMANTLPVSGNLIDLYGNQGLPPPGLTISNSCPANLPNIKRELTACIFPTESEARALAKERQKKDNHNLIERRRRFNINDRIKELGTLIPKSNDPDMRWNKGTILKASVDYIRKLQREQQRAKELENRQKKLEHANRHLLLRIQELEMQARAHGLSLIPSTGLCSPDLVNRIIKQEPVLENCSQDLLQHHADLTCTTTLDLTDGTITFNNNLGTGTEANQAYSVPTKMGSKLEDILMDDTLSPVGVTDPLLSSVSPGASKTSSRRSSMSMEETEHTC
The experiment is described as follows: TRPM1 promoter luciferase signal decrease, dose response, MITF inhibitor project, cell-based, SK-MEL-5, cherry-picked, set 3 (AID 493073).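 Also: SK-MEL-5 melanoma cells with luciferase driven by the MITF target TRPM1 promoter.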 The class given is functional.

Experiment [10] deals with Mitochondrial peptide methionine sulfoxide reductase (Bos taurus, UniProt P54149). The experiment can be described thus: Absorbance-based biochemical high throughput dose response assay for activators of Methionine sulfoxide reductase A (MsrA). The class given is functional.
Mitochondrial peptide methionine sulfoxide reductase, sequence (P54149 whole entry, the tested form may be a part): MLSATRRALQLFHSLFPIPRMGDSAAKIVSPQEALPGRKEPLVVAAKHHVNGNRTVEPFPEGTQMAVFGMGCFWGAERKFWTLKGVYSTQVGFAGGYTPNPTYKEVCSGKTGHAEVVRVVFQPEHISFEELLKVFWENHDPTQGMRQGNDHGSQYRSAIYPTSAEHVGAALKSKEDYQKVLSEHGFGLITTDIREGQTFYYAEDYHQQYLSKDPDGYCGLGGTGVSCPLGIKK
In experiment [11] the target is Hepatocyte nuclear factor 4-alpha (Homo sapiens, UniProt P41235). The class given is functional, cell-based.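 Also: biochemical luminescence-based dose-response counterscreen measuring inhibition of HNF4 dimerization, run alongside a screen for blockers of ABHD5–perilipin-5 interaction; split luciferase complementation of HNF4 fusion proteins in cell lysate measuring dimerization.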
Hepatocyte nuclear factor 4-alpha, sequence (P41235 whole entry, the tested form may be a part): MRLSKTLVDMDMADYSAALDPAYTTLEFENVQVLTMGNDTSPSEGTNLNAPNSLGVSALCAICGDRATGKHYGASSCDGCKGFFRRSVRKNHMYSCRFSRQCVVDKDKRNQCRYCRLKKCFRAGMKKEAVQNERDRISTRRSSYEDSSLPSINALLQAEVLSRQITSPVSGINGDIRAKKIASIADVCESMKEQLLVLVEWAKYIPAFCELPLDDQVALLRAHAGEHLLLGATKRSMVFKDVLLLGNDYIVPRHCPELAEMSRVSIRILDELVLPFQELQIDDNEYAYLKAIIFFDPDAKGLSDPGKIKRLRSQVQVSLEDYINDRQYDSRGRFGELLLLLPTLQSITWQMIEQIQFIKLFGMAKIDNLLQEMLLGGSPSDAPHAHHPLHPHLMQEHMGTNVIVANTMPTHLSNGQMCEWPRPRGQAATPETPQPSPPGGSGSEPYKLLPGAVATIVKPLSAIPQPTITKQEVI
In experiment [12] the target is T7, ATP-dependent translocase ABCB1 (Homo sapiens, UniProt P08183). The experiment can be described thus: ABCG2 efflux pump inhibitor potency, dose response, Ig-MXP3 cells, JC-1, flow cytometry, set 2 (AID 504566).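 Also: flow cytometry median green fluorescence of retained JC-1 dye; potency of efflux pump inhibition measured as rising substrate retention.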 The class given is functional. The settings on record: read-out: EC50_MICROM_. A general note: In flow cytometry, cells or beads pass a laser one at a time.
T7 sequence (P08183 whole entry): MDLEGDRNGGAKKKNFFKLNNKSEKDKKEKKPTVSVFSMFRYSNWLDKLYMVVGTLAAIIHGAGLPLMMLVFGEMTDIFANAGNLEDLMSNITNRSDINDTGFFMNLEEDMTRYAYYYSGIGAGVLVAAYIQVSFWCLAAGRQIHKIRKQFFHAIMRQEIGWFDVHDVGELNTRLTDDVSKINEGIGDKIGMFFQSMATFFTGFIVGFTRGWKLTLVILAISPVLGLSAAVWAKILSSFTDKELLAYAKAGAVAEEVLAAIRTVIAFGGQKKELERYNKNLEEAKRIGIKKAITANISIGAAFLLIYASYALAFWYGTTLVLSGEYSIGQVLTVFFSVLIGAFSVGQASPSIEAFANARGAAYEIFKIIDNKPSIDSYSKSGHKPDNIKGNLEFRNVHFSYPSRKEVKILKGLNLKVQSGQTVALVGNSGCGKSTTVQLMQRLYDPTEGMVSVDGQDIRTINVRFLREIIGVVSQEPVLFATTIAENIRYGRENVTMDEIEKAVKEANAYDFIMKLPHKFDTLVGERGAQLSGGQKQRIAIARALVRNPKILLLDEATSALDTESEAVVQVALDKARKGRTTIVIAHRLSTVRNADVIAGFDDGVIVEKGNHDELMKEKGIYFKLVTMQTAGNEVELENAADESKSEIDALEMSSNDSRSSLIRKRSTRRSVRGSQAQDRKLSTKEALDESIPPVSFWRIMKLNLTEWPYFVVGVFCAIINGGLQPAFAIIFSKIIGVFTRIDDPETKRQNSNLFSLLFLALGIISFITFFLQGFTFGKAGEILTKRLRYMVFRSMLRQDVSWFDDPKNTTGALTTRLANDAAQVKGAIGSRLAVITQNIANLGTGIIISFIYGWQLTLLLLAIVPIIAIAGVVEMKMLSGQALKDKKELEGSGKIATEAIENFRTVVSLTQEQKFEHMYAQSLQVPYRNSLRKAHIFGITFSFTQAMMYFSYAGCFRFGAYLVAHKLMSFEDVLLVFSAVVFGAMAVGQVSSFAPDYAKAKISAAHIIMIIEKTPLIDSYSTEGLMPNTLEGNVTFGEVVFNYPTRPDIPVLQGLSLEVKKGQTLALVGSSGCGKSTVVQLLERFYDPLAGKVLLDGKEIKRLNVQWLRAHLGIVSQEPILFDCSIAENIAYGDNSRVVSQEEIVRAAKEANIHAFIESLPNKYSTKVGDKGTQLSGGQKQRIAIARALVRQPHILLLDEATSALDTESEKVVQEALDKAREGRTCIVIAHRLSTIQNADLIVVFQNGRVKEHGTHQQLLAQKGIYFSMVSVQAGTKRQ

For experiment [13], the target named is T7, ATP-dependent translocase ABCB1. The experiment can be described thus: ABCB1 efflux inhibitor potency, dose response, Jurkat-DNR cells, JC-1, flow cytometry, set 2 (AID 504569).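 Also: potency of pump inhibitors that raise cellular JC-1 green fluorescence up to the nicardipine level.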 The format is functional. The settings on record: read-out: EC50_MICROM_.

Activity calls are given as the source filed them.

Consider `COc1ccc(N2C(=O)[C@@H]3[C@H](C2=O)[C@H]2c4ccccc4C=CN2[C@@H]3C(=O)Nc2ccccc2)cc1`, for which the IC50 was 12.4 µM (active) on Caspase-3, > 50 µM (inactive) at Coagulation factor XII, 16.7 µM (active) in [1] and 3.72 µM (active) in [2].

Broadly, the CC50 is the concentration giving 50% cytotoxicity. `CCOc1c(Cl)cc(C(=O)Nc2ccccc2C(=O)O)cc1Cl`: the IC50 is 52 µM (active) on Genome polyprotein and 26.8 µM (inactive) in [3]. Further, the CC50 with Vero is > 40 µM (active).

For `Cc1cc(C(=O)COc2cc(F)ccc2[N+](=O)[O-])c(C)n1CC1CCCO1` (stereo not given), the IC50 (on Melanocortin receptor 4; in [4]) was > 64.6 µM (inactive) throughout.

As to `CC1(C)C2CC=C(/C=N/NC(=O)c3ccccc3O)C1C2` (stereo not given), the results for the IC50 in experiment [5] and in [7] were 5.3 µM (active) and > 20 µM (inactive), respectively. In addition, the EC50 in [6] was 31.1 µM (active).

As a reminder, the AC50 is the concentration giving half of the maximal activity seen. With `Nc1nc2ccccc2n1/N=C/c1ccc([N+](=O)[O-])s1`, at Protein Wnt-3a, the IC50 is 15.3 µM (active). Besides, the AC50 in the experiment on INS1 is 4.11 µM (active); in experiment [9] it was 2.81 µM (active). Also, the values for the EC50 in experiment [8] and in experiment [10] were 4.39 µM (active) and > 104 µM (inactive), respectively.

`COC(=O)c1cc(=O)n(Cc2ccco2)/c(=N/c2ccc(F)cc2)s1`: the IC50 in experiment [11] was 5.67 µM (active).

For the compound `Cc1cccc(-c2nc3nc(C)cc(N4CCN(C(=O)c5ccco5)CC4)n3n2)c1`, the EC50 in [12] was 6 µM (active); in [13], 14.6 µM (active).
